From the NIST ThermoML archive (doi:10.1016/j.tca.2009.03.005)
Numbers after ± are expanded uncertainties.

Legend:
[1] = DTA
[2] = Molar enthalpy of transition or fusion; settings: Crystal 2; DSC
[3] = molar heat capacity at constant pressure; settings: 101.33 kPa

O=N[O-].[Na+] [sodium nitrite]
[1]
Settings | Normal melting temperature [°C] | Triple point temperature [K]
Crystal 1 | 280.1 ± 0.5 | –
Crystal 2 | – | 438.7 ± 0.4
Crystal 3 | – | 437.2 ± 0.4

Settings | Molar enthalpy of transition or fusion [kJ/mol]
[2] | 13.9 ± 0.4

[3]
Settings | molar heat capacity at constant pressure [J/K/mol]
273.15 K, Crystal 3, Small sample (50 mg) DSC | 85.2 ± 5.2
278.15 K, Crystal 3, Small sample (50 mg) DSC | 85.3 ± 5.2
283.15 K, Crystal 3, Small sample (50 mg) DSC | 86 ± 5
288.15 K, Crystal 3, Small sample (50 mg) DSC | 86.6 ± 5.2
293.15 K, Crystal 3, Small sample (50 mg) DSC | 87.3 ± 5.2
298.15 K, Crystal 3, Small sample (50 mg) DSC | 88.1 ± 5.2
303.15 K, Crystal 3, Large sample (1 g) DSC | 85.3 ± 4.2
303.15 K, Crystal 3, Small sample (50 mg) DSC | 88.8 ± 5.2
308.15 K, Crystal 3, Small sample (50 mg) DSC | 90.1 ± 5.2
313.15 K, Crystal 3, Small sample (50 mg) DSC | 90.8 ± 5.2
318.15 K, Crystal 3, Small sample (50 mg) DSC | 91.8 ± 5.2
323.15 K, Crystal 3, Large sample (1 g) DSC | 89.3 ± 4.4
323.15 K, Crystal 3, Small sample (50 mg) DSC | 92.8 ± 5.2
328.15 K, Crystal 3, Small sample (50 mg) DSC | 94 ± 5
333.15 K, Crystal 3, Small sample (50 mg) DSC | 95.3 ± 5.2
338.15 K, Crystal 3, Small sample (50 mg) DSC | 96.7 ± 5.2
343.15 K, Crystal 3, Large sample (1 g) DSC | 94.1 ± 4.6
343.15 K, Crystal 3, Small sample (50 mg) DSC | 98 ± 5
348.15 K, Crystal 3, Small sample (50 mg) DSC | 99.8 ± 5.2
353.15 K, Crystal 3, Small sample (50 mg) DSC | 101.3 ± 5.2
358.15 K, Crystal 3, Small sample (50 mg) DSC | 102.5 ± 5.2
363.15 K, Crystal 3, Large sample (1 g) DSC | 99.9 ± 4.9
363.15 K, Crystal 3, Small sample (50 mg) DSC | 103.5 ± 5.2
368.15 K, Crystal 3, Small sample (50 mg) DSC | 106.2 ± 5.3
373.15 K, Crystal 3, Small sample (50 mg) DSC | 108.2 ± 5.3
378.15 K, Crystal 3, Small sample (50 mg) DSC | 109.9 ± 5.3
383.15 K, Crystal 3, Large sample (1 g) DSC | 107.8 ± 5.3
383.15 K, Crystal 3, Small sample (50 mg) DSC | 111.6 ± 5.3
388.15 K, Crystal 3, Small sample (50 mg) DSC | 115.3 ± 5.3
393.15 K, Crystal 3, Small sample (50 mg) DSC | 118.2 ± 5.3
398.15 K, Crystal 3, Small sample (50 mg) DSC | 121.5 ± 5.3
403.15 K, Crystal 3, Large sample (1 g) DSC | 119.3 ± 5.9
403.15 K, Crystal 3, Small sample (50 mg) DSC | 124.4 ± 5.3
408.15 K, Crystal 3, Small sample (50 mg) DSC | 130 ± 6
413.15 K, Crystal 3, Small sample (50 mg) DSC | 135.6 ± 5.8
418.15 K, Crystal 3, Small sample (50 mg) DSC | 142.7 ± 6.1
419.15 K, Crystal 3, Small sample (50 mg) DSC | 144.39 ± 6.1
420.15 K, Crystal 3, Small sample (50 mg) DSC | 146.16 ± 6.2
421.15 K, Crystal 3, Small sample (50 mg) DSC | 148.05 ± 6.3
422.15 K, Crystal 3, Small sample (50 mg) DSC | 150.11 ± 6.4
423.15 K, Crystal 3, Small sample (50 mg) DSC | 152.4 ± 6.5
424.15 K, Crystal 3, Small sample (50 mg) DSC | 154.72 ± 6.6
425.15 K, Crystal 3, Small sample (50 mg) DSC | 157.33 ± 6.7
426.15 K, Crystal 3, Small sample (50 mg) DSC | 160.25 ± 6.8
427.15 K, Crystal 3, Small sample (50 mg) DSC | 163.31 ± 6.9
428.15 K, Crystal 3, Small sample (50 mg) DSC | 166.7 ± 7.1
429.15 K, Crystal 3, Small sample (50 mg) DSC | 170.6 ± 7.2
430.15 K, Crystal 3, Small sample (50 mg) DSC | 175.1 ± 7.4
431.15 K, Crystal 3, Small sample (50 mg) DSC | 180.4 ± 7.7
437.25 K, Crystal 2, Small sample (50 mg) DSC | 215.4 ± 11
437.35 K, Crystal 2, Small sample (50 mg) DSC | 213.7 ± 11
437.45 K, Crystal 2, Small sample (50 mg) DSC | 213.5 ± 11
437.55 K, Crystal 2, Small sample (50 mg) DSC | 213.7 ± 11
437.75 K, Crystal 2, Small sample (50 mg) DSC | 215.5 ± 11
437.85 K, Crystal 2, Small sample (50 mg) DSC | 217.1 ± 11
437.95 K, Crystal 2, Small sample (50 mg) DSC | 220.4 ± 12
438.05 K, Crystal 2, Small sample (50 mg) DSC | 223.4 ± 12
438.15 K, Crystal 2, Small sample (50 mg) DSC | 223.6 ± 12
468.15 K, Crystal 1, Small sample (50 mg) DSC | 129 ± 6.7
473.15 K, Crystal 1, Small sample (50 mg) DSC | 129.8 ± 6.8
478.15 K, Crystal 1, Small sample (50 mg) DSC | 130.8 ± 6.8
483.15 K, Crystal 1, Large sample (1 g) DSC | 131.6 ± 6.5
483.15 K, Crystal 1, Small sample (50 mg) DSC | 131.9 ± 6.9
488.15 K, Crystal 1, Small sample (50 mg) DSC | 133.2 ± 7
493.15 K, Crystal 1, Small sample (50 mg) DSC | 134.7 ± 7
498.15 K, Crystal 1, Small sample (50 mg) DSC | 136 ± 7.1
503.15 K, Crystal 1, Large sample (1 g) DSC | 138.7 ± 6.8
503.15 K, Crystal 1, Small sample (50 mg) DSC | 137.8 ± 7.2
508.15 K, Crystal 1, Small sample (50 mg) DSC | 140 ± 7.3
513.15 K, Crystal 1, Small sample (50 mg) DSC | 142.4 ± 7.5
518.15 K, Crystal 1, Small sample (50 mg) DSC | 145.2 ± 7.6
521.15 K, Crystal 1, Small sample (50 mg) DSC | 147.7 ± 7.7
522.15 K, Crystal 1, Small sample (50 mg) DSC | 148.5 ± 7.8
523.15 K, Crystal 1, Large sample (1 g) DSC | 148.8 ± 7.3
523.15 K, Crystal 1, Small sample (50 mg) DSC | 148.9 ± 7.8
524.15 K, Crystal 1, Small sample (50 mg) DSC | 149.8 ± 7.8
525.15 K, Crystal 1, Small sample (50 mg) DSC | 150.9 ± 7.9
526.15 K, Crystal 1, Small sample (50 mg) DSC | 152 ± 8
527.15 K, Crystal 1, Small sample (50 mg) DSC | 153 ± 8
528.15 K, Crystal 1, Small sample (50 mg) DSC | 153.2 ± 8
529.15 K, Crystal 1, Small sample (50 mg) DSC | 155 ± 8.1
530.15 K, Crystal 1, Small sample (50 mg) DSC | 156 ± 8.2
531.15 K, Crystal 1, Small sample (50 mg) DSC | 157.5 ± 8.2
532.15 K, Crystal 1, Small sample (50 mg) DSC | 158.7 ± 8.3
533.15 K, Crystal 1, Large sample (1 g) DSC | 161.2 ± 7.9
533.15 K, Crystal 1, Small sample (50 mg) DSC | 160.2 ± 8.4
534.15 K, Crystal 1, Small sample (50 mg) DSC | 161.8 ± 8.5
535.15 K, Crystal 1, Small sample (50 mg) DSC | 163.1 ± 8.5
536.15 K, Crystal 1, Small sample (50 mg) DSC | 165.7 ± 8.7
537.15 K, Crystal 1, Small sample (50 mg) DSC | 168 ± 8.8
538.15 K, Crystal 1, Small sample (50 mg) DSC | 169.8 ± 8.9
539.15 K, Crystal 1, Small sample (50 mg) DSC | 173.2 ± 9.1
540.15 K, Crystal 1, Small sample (50 mg) DSC | 176.4 ± 9.2

[3], Liquid, Small sample (50 mg) DSC
Settings | molar heat capacity at constant pressure [J/K/mol]
562.15 K | 116.8 ± 6.1
563.15 K | 110 ± 5.8
564.15 K | 110.2 ± 5.8
565.15 K | 109.9 ± 5.8
566.15 K | 110.2 ± 5.8
568.15 K | 110.9 ± 5.8
573.15 K | 111.9 ± 5.9
578.15 K | 112.3 ± 5.9
583.15 K | 112.6 ± 5.9
